From patent publication US20140303546A1, “LASER ASSISTED DELIVERY OF FUNCTIONAL CELLS, PEPTIDES AND NUCLEOTIDES” (priority 2011, published 2014)

Test system: Methicillin resistant Staphylococcus aureus (MRSA) biofilms
Test: MRSA biofilm deep partial thickness wound model
Assay type: in vivo
Details: 24 hours after treatment; for reduction of MRSA counts in wounds: porcine wounds
Description: Rectangular wounds measuring (10 mm×7 mm×0.5 mm) were made on the paravertebral and thoracic area (porcine) with a specialized electrokeratome fitted with a 7 mm blade. Wounds were inoculated with 250 μL of a 10^6 CFU/ml suspension and covered individually with a polyurethane film dressing to allow for biofilm formation. After 24 hours, the dressings were removed and wounds were randomly assigned to one of the following treatment groups: 1) untreated control, 2) ErYag, 3) ErYag plus gentamycin or 3) gentamycin alone. After treatment the wounds were covered with a new polyurethane film dressing and after 24 hours wounds were recovered for MRSA counts using a well published scrub technique. Oxicillin resistance screening agar (ORSAB) was used to isolate MRSA from the wounds. All plates were incubated aerobically overnight (16-24 hours) at 37° C., after which the number of viable colonies will be counted.
Methicillin resistant Staphylococcus aureus (MRSA) biofilms were created using a deep partial thickness wound model (described above). Wounds were randomly assigned to one of the following treatment groups: 1) untreated control, 2) ErYag, 3) ErYag plus gentamycin or 3) gentamycin alone. Twenty four hours after treatment, MRSA was recovered. […] However in combination (Laser+gentamycin) were able to reduce MRSA counts by 1.72 Log CFU/ml.

[1] = in combination with ErYag laser

## gentamycin
Gentamycin alone
  reduction of MRSA counts in wounds: 0.6 Log CFU/ml
[1]
  reduction in MRSA: 98.09%
  reduction of MRSA counts in wounds: 1.72 Log CFU/ml
